Measured values as given in patent publication US6693085B2, “Macrolide compound JK” (Higeta Shoyu Co., Ltd., priority 2000, dated 2004).
Converted amounts (≈) assume the structure as drawn. Like-named read-outs stand apart in the source and are kept apart here. One block for each compound: values may come before it.

How the values were obtained:
[1] = system: clinically freshly isolated MRSAs; experiment: Anti-MRSA activity (MIC), 11 clinically freshly isolated MRSA strains; format: cell-based, Staphylococcus aureus; conditions: for MIC: Staphylococcus aureus, MRSA
Description: (§1) Antimicrobial activity of JK-1 was determined by measuring the minimum growth inhibition concentration (MIC) as follows.
(§2) MIC values of JK against a variety of microorganisms were determined on a Mueller-Hinton broth containing 0.2% glucose according to the rule of Japanese Society of Chemotherapy (Kouseibussitsu Taiyo (The Essentials of Antibiotics), 4th ed., University of Tokyo Press, 1992).
(§3) JK-1 was dissolved in methanol, and diluted with the above medium, repeating 2-fold dilution starting from 1 mg/ml. Test microorganisms were added to the above medium to give a test solution of 1×10^6 cells/ml. The JK solution (20 μl) and the test solution (180 μl) were dispensed in a 96 well microplate and incubated at 37° C. After 24 hours, either positive or negative growth was confirmed visually, and the MIC value was caluculated.
Among gram-positive bacteria, there was no difference between MIC values, especially, of Staphylococcus aureus and its multi-drug resistant strain MRSA (Table 5) which have become a clinical problem. In this situation, the antimicrobial activity of JK-1 was compared to that of commercially available 3 drugs in 11 strains of clinically freshly isolated MRSAs.

[2] = system: Actinomadura pelletieri IFM0903; experiment: Sensitivity of the producing strain against antibiotics; format: cell-based; conditions: Actinomadura pelletieri IFM0903, strain characterisation
Bacillus subtilis PCII89 = experiment: Antimicrobial activity (MIC, broth dilution); format: cell-based; conditions: Bacillus subtilis PCII89, 24 hours, 37° C.
Description: as §1, §2, §3

Corynebacterium xerosis = experiment: Antimicrobial activity (MIC, broth dilution); format: cell-based; conditions: 24 hours, 37° C.
Description: as §1, §2, §3

Nocardia asteroides = experiment: Antimicrobial activity (MIC, broth dilution); format: cell-based; conditions: 24 hours, 37° C.
Description: as §1, §2, §3

[3] = system: Escherichia coli NIH JC-2; experiment: Antimicrobial activity (MIC, broth dilution); format: cell-based; conditions: Escherichia coli NIH JC-2, 24 hours, 37° C.
Description: as §1, §2, §3

[4] = system: Staphylococcus aureus 209P; experiment: Antimicrobial activity (MIC, broth dilution); format: cell-based; conditions: 24 hours, 37° C.
Description: as §1, §2, §3

Gordonia bronchialis = experiment: Antimicrobial activity (MIC, broth dilution); format: cell-based; conditions: 24 hours, 37° C.
Description: as §1, §2, §3

Candida albicans = experiment: Antimicrobial activity (MIC, broth dilution); format: cell-based; conditions: 24 hours, 37° C.
Description: as §1, §2, §3

Asperigillus niger = experiment: Antimicrobial activity (MIC, broth dilution); format: cell-based; conditions: 24 hours, 37° C.
Description: as §1, §2, §3

Micrococcus luteus = experiment: Antimicrobial activity (MIC, broth dilution); format: cell-based; conditions: 24 hours, 37° C.
Description: as §1, §2, §3

gram-positive bacteria = experiment: Antimicrobial activity (MIC), summary for gram-positive bacteria; format: cell-based; conditions: range over the gram-positive bacteria of Table 5
Description: as §1, §2, §3

MRSA = experiment: Antimicrobial activity (MIC, broth dilution); format: cell-based, Staphylococcus aureus; conditions: 24 hours, 37° C.
Description: as §1, §2, §3

[5] = system: gram-negative bacteria and fungi; experiment: Antimicrobial activity (MIC), summary for gram-negative bacteria and fungi; format: cell-based; conditions: summary of Table 5
Description: as §1, §2, §3

Compound: CN[C@H](CC(C)C)C(=O)N[C@H]1C(=O)N[C@@H](CC(N)=O)C(=O)N[C@H]2C(=O)N[C@H]3C(=O)N[C@H](C(=O)N[C@H](C(=O)O)c4cc(O)cc(O)c4-c4cc3ccc4O)[C@H](O)c3ccc(c(Cl)c3)Oc3cc2cc(c3O[C@@H]2O[C@H](CO)[C@@H](O)[C@H](O)[C@H]2O[C@H]2C[C@](C)(N)[C@H](O)[C@H](C)O2)Oc2ccc(cc2Cl)[C@H]1O [vancomycin]
MIC ([1]; read-out: MIC values, MRSA strain 3666): 1.56 µg/mL (≈ 1.08 µM)
MIC ([1]; read-out: MIC values, MRSA strain 3667): 3.13 µg/mL (≈ 2.16 µM)
MIC ([1]; read-out: MIC values, MRSA strain 3668): 1.56 µg/mL (≈ 1.08 µM)
MIC ([1]; read-out: MIC values, MRSA strain 3669): 0.78 µg/mL (≈ 0.538 µM)
MIC ([1]; read-out: MIC values, MRSA strain 3670): 0.78 µg/mL (≈ 0.538 µM)
MIC ([1]; read-out: MIC values, MRSA strain 3671): 0.78 µg/mL (≈ 0.538 µM)
MIC ([1]; read-out: MIC values, MRSA strain S-1): 6.25 µg/mL (≈ 4.31 µM)
MIC ([1]; read-out: MIC values, MRSA strain S-2): 3.13 µg/mL (≈ 2.16 µM)
MIC ([1]; read-out: MIC values, MRSA strain S-3): 1.56 µg/mL (≈ 1.08 µM)
MIC ([1]; read-out: MIC values, MRSA strain S-4): 1.56 µg/mL (≈ 1.08 µM)
MIC ([1]; read-out: MIC values, MRSA strain S-5): 1.56 µg/mL (≈ 1.08 µM)

MIC ([1]; MRSA strain 3666, read-out: MIC values): > 100 µg/mL
MIC ([1]; MRSA strain 3667, read-out: MIC values): > 100 µg/mL
MIC ([1]; MRSA strain 3668, read-out: MIC values): > 100 µg/mL
MIC ([1]; MRSA strain 3669, read-out: MIC values): > 100 µg/mL
MIC ([1]; MRSA strain 3670, read-out: MIC values): > 100 µg/mL
MIC ([1]; MRSA strain 3671, read-out: MIC values): > 100 µg/mL
MIC ([1]; MRSA strain S-1, read-out: MIC values): > 100 µg/mL
MIC ([1]; MRSA strain S-2, read-out: MIC values): 12.5 µg/mL (≈ 17 µM)
MIC ([1]; MRSA strain S-3, read-out: MIC values): > 100 µg/mL
MIC ([1]; MRSA strain S-4, read-out: MIC values): > 100 µg/mL
MIC ([1]; MRSA strain S-5, read-out: MIC values): > 100 µg/mL
Compound: CC[C@H]1OC(=O)[C@H](C)[C@@H](O[C@H]2C[C@@](C)(OC)[C@@H](O)[C@H](C)O2)[C@H](C)[C@@H](O[C@@H]2O[C@H](C)C[C@H](N(C)C)[C@H]2O)[C@](C)(O)C[C@@H](C)C(=O)[C@H](C)[C@@H](O)[C@]1(C)O [erythromycin]

MIC values ([1]; MRSA strain 3666): >100 µg/mL
MIC values ([1]; MRSA strain 3667): >100 µg/mL
MIC values ([1]; MRSA strain 3668): >100 µg/mL
MIC values ([1]; MRSA strain 3669): >100 µg/mL
MIC values ([1]; MRSA strain 3670): >100 µg/mL
MIC values ([1]; MRSA strain 3671): >100 µg/mL
MIC values ([1]; MRSA strain S-1): >100 µg/mL
MIC values ([1]; MRSA strain S-2): >100 µg/mL
MIC values ([1]; MRSA strain S-3): >100 µg/mL
MIC values ([1]; MRSA strain S-4): >100 µg/mL
MIC values ([1]; MRSA strain S-5): >100 µg/mL
Compound: CC1(C)S[C@@H]2[C@H](NC(=O)Cc3ccccc3)C(=O)N2[C@H]1C(=O)O [penicillin-G]

Compound: NC[C@H]1O[C@H](O[C@H]2[C@H](O)[C@@H](O[C@H]3O[C@H](CO)[C@@H](O)[C@H](N)[C@H]3O)[C@H](N)C[C@@H]2N)[C@H](N)C[C@@H]1O [Tobramycin]
Sensitivity against Antibiotics [2]: positive

MIC values ([1]; MRSA strain 3666): 0.2 µg/mL (≈ 0.232 µM)
MIC values ([1]; MRSA strain 3667): 0.2 µg/mL (≈ 0.232 µM)
MIC values ([1]; MRSA strain 3668): 0.2 µg/mL (≈ 0.232 µM)
MIC values ([1]; MRSA strain 3669): 0.2 µg/mL (≈ 0.232 µM)
MIC values ([1]; MRSA strain 3670): 0.78 µg/mL (≈ 0.903 µM)
MIC values ([1]; MRSA strain 3671): 0.2 µg/mL (≈ 0.232 µM)
MIC values ([1]; MRSA strain S-1): 0.78 µg/mL (≈ 0.903 µM)
MIC values ([1]; MRSA strain S-2): 0.78 µg/mL (≈ 0.903 µM)
MIC values ([1]; MRSA strain S-3): 0.39 µg/mL (≈ 0.452 µM)
MIC values ([1]; MRSA strain S-4): 0.39 µg/mL (≈ 0.452 µM)
MIC values ([1]; MRSA strain S-5): 0.2 µg/mL (≈ 0.232 µM)
Compound: CCCC1C=CC2C=C(C)C(OC3CC(N)C(NC(=O)c4c(O)ccc(Cl)c4C)C(C)O3)CC=CC3C(CC)=CC4C(O)C(O)CC(C)C4C3(C)C(=O)C3=C(O)C2(C1)OC3=O (stereo not shown) [JK-2]

Compound: O=c1[nH]cc(F)c(=O)[nH]1 [Compound 5-FU, 5-FU]
Sensitivity against Antibiotics [2]: positive

Compound: CCCC1C=CC2C=C(C)C(OC3CC(NC)C(NC(=O)c4c(O)ccc(Cl)c4C)C(C)O3)CC=CC3C(CC)=CC4C(O)C(O)CC(C)C4C3(C)C(=O)C3=C(O)C2(C1)OC3=O (stereo not shown) [JK-1]
MIC values (Bacillus subtilis PCII89): 0.39 µg/mL (≈ 0.444 µM)
MIC values (Corynebacterium xerosis): 0.025 µg/mL (≈ 0.0285 µM)
MIC values (Nocardia asteroides): 0.05 µg/mL (≈ 0.057 µM)
MIC values [3]: >100 µg/mL
MIC values [4]: 0.05 µg/mL (≈ 0.057 µM)
MIC values (Gordonia bronchialis): 0.39 µg/mL (≈ 0.444 µM)
MIC values (Candida albicans): >100 µg/mL
MIC values (Asperigillus niger): >100 µg/mL
MIC values (Micrococcus luteus): 0.05 µg/mL (≈ 0.057 µM)
activity relative to vancomycin ([1]; 11 strains of clinically freshly isolated MRSAs): about 6 times
MIC values ([1]; MRSA strain 3666): 0.2 µg/mL (≈ 0.228 µM)
MIC values ([1]; MRSA strain 3667): 0.2 µg/mL (≈ 0.228 µM)
MIC values ([1]; MRSA strain 3668): 0.2 µg/mL (≈ 0.228 µM)
MIC values ([1]; MRSA strain 3669): 0.2 µg/mL (≈ 0.228 µM)
MIC values ([1]; MRSA strain 3670): 1.56 µg/mL (≈ 1.78 µM)
MIC values ([1]; MRSA strain 3671): 0.1 µg/mL (≈ 0.114 µM)
MIC values ([1]; MRSA strain S-1): 0.78 µg/mL (≈ 0.889 µM)
MIC values ([1]; MRSA strain S-2): 0.39 µg/mL (≈ 0.444 µM)
MIC values ([1]; MRSA strain S-3): 0.39 µg/mL (≈ 0.444 µM)
MIC values ([1]; MRSA strain S-4): 0.2 µg/mL (≈ 0.228 µM)
MIC values ([1]; MRSA strain S-5): 0.2 µg/mL (≈ 0.228 µM)
MIC values against gram-positive bacteria (gram-positive bacteria): 0.025 to 0.39 µg/mL
MIC values (MRSA): 0.05 µg/mL (≈ 0.057 µM)
antimicrobial activity against gram-negative bacteria and fungi [5]: No antimicrobial activity
